Experiments:
[1] = tested on: Monochoria vaginalis, Presl.; experiment: Preemergence weed control under flooded paddy conditions, MOOVA (Monochoria); format: in vivo; details: preemergence weeds, flooded paddy, rated three to four weeks after treatment
[2] = tested on: Oryza sativa, (L.) Tebonnet; experiment: Rice tolerance to post-transplant applications under flooded paddy conditions (Example 187), ORYSAT (Rice, Tebonnet); details: rated three to four weeks after treatment
[3] = tested on: Echinochloa oryzoides (Ard.) Fritsch.; experiment: Preemergence weed control under flooded paddy conditions, ECHORC (Watergrass (Calif.)); format: in vivo; details: preemergence weeds, flooded paddy, rated three to four weeks after treatment
[4] = tested on: Sagittaria pygmaea, L.; experiment: Preemergence weed control under flooded paddy conditions, SAGPY (Arrowhead (Pygmaea)); format: in vivo; details: preemergence weeds, flooded paddy, rated three to four weeks after treatment
[5] = tested on: Cyperus serotinus, Rottb.; experiment: Preemergence weed control under flooded paddy conditions, CYPSE (Flatsedge); format: in vivo; details: preemergence weeds, rated three to four weeks after treatment
[6] = tested on: Cyperus iria; experiment: Preemergence weed control under flooded paddy conditions, CYPIR (Rice Flatsedge); format: in vivo; details: preemergence weeds, flooded paddy, rated three to four weeks after treatment
Also: meaning of each grade not given here.

Row | Compound | herbicidal effect rating, MOOVA ([1]; Rate 0.0320 kg/ha) | herbicidal effect rating, MOOVA ([1]; Rate 0.0620 kg/ha) | herbicidal effect rating, MOOVA ([1]; Rate 0.1250 kg/ha) | herbicidal effect rating, MOOVA ([1]; Rate 0.2500 kg/ha) | herbicidal effect rating ORYSAT ([2]; Rate 0.0320 kg/ha) | herbicidal effect rating ORYSAT ([2]; Rate 0.0620 kg/ha) | herbicidal effect rating ORYSAT ([2]; Rate 0.1250 kg/ha) | herbicidal effect rating ORYSAT ([2]; Rate 0.2500 kg/ha) | herbicidal effect rating, ECHORC ([3]; Rate 0.0320 kg/ha) | herbicidal effect rating, ECHORC ([3]; Rate 0.0620 kg/ha) | herbicidal effect rating, ECHORC ([3]; Rate 0.1250 kg/ha) | herbicidal effect rating, ECHORC ([3]; Rate 0.2500 kg/ha) | herbicidal effect rating, SAGPY ([4]; Rate 0.0320 kg/ha) | herbicidal effect rating, SAGPY ([4]; Rate 0.0620 kg/ha) | herbicidal effect rating, SAGPY ([4]; Rate 0.1250 kg/ha) | herbicidal effect rating, SAGPY ([4]; Rate 0.2500 kg/ha) | herbicidal effect rating, CYPSE ([5]; Rate 0.0320 kg/ha) | herbicidal effect rating, CYPSE ([5]; Rate 0.0620 kg/ha) | herbicidal effect rating, CYPSE ([5]; Rate 0.1250 kg/ha) | herbicidal effect rating, CYPSE ([5]; Rate 0.2500 kg/ha) | other results
1 | COC(=O)COc1cccc(-c2nsc3ccc(-n4c(=O)cc(C(F)(F)F)n(C)c4=O)cc23)c1 [Example 332, Acetic acid, {m-{5-[3,6-dihydro-3-methyl-2,6-dioxo-4-(trifluoromethyl)-1(2H)-pyrimidinyl]-1,2-benzisothiazol-3-yl}phenoxy}-, methyl ester] | 9.0 | 9.0 | 9.0 | 9.0 | 5.5 | 5.5 | 5.5 | 7.5 | 6.5 | 8.5 | 9.0 | 9.0 | 3.0 | 3.5 | 6.5 | 9.0 | 4.0 | 4.5 | 4.5 | 7.5 | herbicidal effect rating, CYPIR ([6]; Rate 0.0320 kg/ha): 9.0; herbicidal effect rating, CYPIR ([6]; Rate 0.0620 kg/ha): 9.0; herbicidal effect rating, CYPIR ([6]; Rate 0.1250 kg/ha): 9.0; herbicidal effect rating, CYPIR ([6]; Rate 0.2500 kg/ha): 9.0
2 | CN(O)C(=O)COc1ccccc1-c1nsc2ccc(-n3c(=O)cc(C(F)(F)F)n(C)c3=O)cc12 [Example 336, Acetohydroxamic acid, 2-{o-{5-[3,6-dihydro-3-methyl-2,6-dioxo-4-(trifluoromethyl)-1(2H)-pyrimidinyl]-1,2-benzisothiazol-3-yl}phenoxy}-N-methyl-] | 9.0 | 9.0 | 9.0 | 9.0 | 2.0 | 4.5 | 4.5 | 9.0 | 6.5 | 9.0 | 9.0 | 9.0 | 0.0 | 0.0 | 1.0 | 9.0 | 0.0 | 0.0 | 2.0 | 3.0 | herbicidal effect rating, CYPIR ([6]; Rate 0.0320 kg/ha): 0.0; herbicidal effect rating, CYPIR ([6]; Rate 0.0620 kg/ha): 1.0; herbicidal effect rating, CYPIR ([6]; Rate 0.1250 kg/ha): 4.0; herbicidal effect rating, CYPIR ([6]; Rate 0.2500 kg/ha): 9.0
3 | Cn1c(C(F)(F)F)cc(=O)n(-c2ccc3snc(C(=O)NS(=O)(=O)Cc4ccccc4)c3c2)c1=O [Example 341, 1,2-Benzisothiazole-3-carboxamide, N-(benzylsulfonyl)-5-[3,6-dihydro-3-methyl-2,6-dioxo-4-(trifluoromethyl)-1(2H)-pyrimidinyl]-] | 7.0 | 9.0 | 9.0 | 9.0 | 1.5 | 2.5 | 3.0 | 3.5 | 3.0 | 5.5 | 8.0 | 8.5 | 1.0 | 4.5 | 4.5 | 4.5 | 0.0 | 0.0 | 2.5 | 3.5 | herbicidal effect rating, CYPIR ([6]; Rate 0.0320 kg/ha): 1.0; herbicidal effect rating, CYPIR ([6]; Rate 0.0620 kg/ha): 2.0; herbicidal effect rating, CYPIR ([6]; Rate 0.1250 kg/ha): 3.5; herbicidal effect rating, CYPIR ([6]; Rate 0.2500 kg/ha): 4.0
4 | COc1ccc(C)cc1-c1noc2cc(F)c(-n3c(=O)cc(C(F)(F)F)n(C)c3=O)cc12 [Example 345, 2,4(1H,3H)-Pyrimidinedione, 3-[6-fluoro-3-(6-methoxy-m-tolyl)-1,2-benzisoxazol-5-yl]-1-methyl-6-(trifluoromethyl)-] | 9.0 | 9.0 | 9.0 | 9.0 | 5.5 | 5.5 | 5.5 | 6.0 | 9.0 | 9.0 | 9.0 | 9.0 | 4.5 | 9.0 | 9.0 | 9.0 | 5.0 | 9.0 | 4.5 | 9.0 | herbicidal effect rating, CYPIR ([6]; Rate 0.0320 kg/ha): 9.0; herbicidal effect rating, CYPIR ([6]; Rate 0.0620 kg/ha): 9.0; herbicidal effect rating, CYPIR ([6]; Rate 0.1250 kg/ha): 9.0; herbicidal effect rating, CYPIR ([6]; Rate 0.2500 kg/ha): 9.0

Reference: patent EP0908457B1, “3-(1,2-benzisothiazol- and isoxazol-5-Y1)-2,4(1H,3H)-pyrimidinedione or thione and 3-(1,2-benzisothiazol- and isoxazol-5-y1)-4(3H)-pyrimidinone or thione herbicidal agents” (BASF AKTIENGESELLSCHAFT, priority 1997, dated 1999)
